Laboratory results as given in PubChem BioAssay (NCI).
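Cultured in 96-well plates, cells were exposed to test compound for 48 hours across five concentrations. GI50 is the concentration that inhibits growth by half. At the TGI there is no net growth.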

Key:
Assay in all cases: NCI tumour cell line growth inhibition, 48 h
[1] = system: HCC-2998 colon
[2] = system: DU-145 prostate
[3] = system: SW-620 colon
[4] = system: OVCAR-5 ovarian
[5] = system: UACC-257 melanoma
[6] = system: OVCAR-8 ovarian
[7] = system: SK-MEL-2 melanoma
[8] = system: SF-268 CNS
[9] = system: SF-295 CNS
[10] = system: M14 melanoma
[11] = system: OVCAR-3 ovarian
[12] = system: PC-3 prostate
[13] = system: RPMI-8226 leukemia
[14] = system: SN12C renal
[15] = system: TK-10 renal
[16] = system: ACHN renal
[17] = system: COLO 205 colon
[18] = system: HS 578T breast
[19] = system: EKVX NSCLC
[20] = system: HCT-116 colon
[21] = system: MALME-3M melanoma
[22] = system: MCF7 breast
[23] = system: RXF 393 renal
[24] = system: IGROV1 ovarian
[25] = system: U251 CNS
[26] = system: BT-549 breast
[27] = system: T-47D breast
[28] = system: CCRF-CEM leukemia
[29] = system: NCI-H23 lung
[30] = system: HT29 colon
[31] = system: OVCAR-4 ovarian
[32] = system: NCI-H522 lung
[33] = system: SK-MEL-28 melanoma
[34] = system: HOP-92 NSCLC
[35] = system: MDA-MB-231 breast
[36] = system: A549 NSCLC
[37] = system: SNB-75 CNS
[38] = system: A498 renal
[39] = system: HOP-62 NSCLC
[40] = system: KM12 colon
[41] = system: UO-31 renal
[42] = system: SNB-19 CNS
[43] = system: SK-MEL-5 melanoma
[44] = system: SF-539 CNS
[45] = system: HL-60(TB) leukemia
[46] = system: LOX IMVI melanoma
[47] = system: UACC-62 melanoma
[48] = system: CAKI-1 renal
[49] = system: NCI/ADR-RES ovarian
[50] = system: MDA-MB-435
[51] = system: 786-0 renal
[52] = system: NCI-H460 lung
[53] = system: MOLT-4 leukemia
[54] = system: HCT-15 colon
[55] = system: NCI-H226 lung
[56] = system: SR leukemia
[57] = system: K-562 leukemia
[58] = system: SK-OV-3 ovarian

Compound CCOC(=O)c1c(OCC)[nH]c(=O)c(C(c2cccs2)c2c(O)c(C(=O)OCC)c(OCC)[nH]c2=O)c1O has a TGI [1] of 35 µM, a TGI [2] of 26.9 µM and a TGI [3] of 34.1 µM. The TGI [4] was greater than 100 µM, the TGI [5] was 36.9 µM and the TGI [6] was 41.6 µM. The TGI [7] was 29.9 µM, the TGI [8] was 35 µM and the TGI [9] was 49.6 µM. The TGI [10] was 35.6 µM, the TGI [11] was 30.4 µM and the TGI [12] was greater than 100 µM. The TGI [13] was greater than 100 µM, the TGI [14] was 34.6 µM and the TGI [15] was 63.7 µM. It also gave a TGI [16] of 25.4 µM, a TGI [17] of 40.7 µM and a TGI [18] greater than 100 µM. It also gave a TGI [19] of 32.7 µM, a TGI [20] of 45 µM and a TGI [21] of 25.6 µM. It also gave a TGI [22] of 53.9 µM, a TGI [23] of 19 µM and a TGI [24] of 28.6 µM. It also gave a TGI [25] of 30.3 µM, a TGI [26] of 22.7 µM and a TGI [27] of 17 µM. It also gave a TGI [28] greater than 100 µM, a TGI [29] of 82.3 µM and a TGI [30] of 35.3 µM. For the same compound, the TGI [31] was 76 µM, the TGI [32] was 27.6 µM and the TGI [33] was 43.6 µM. The TGI [34] was 48.2 µM, the TGI [35] was 30.1 µM and the TGI [36] was 32.8 µM. It also gave a TGI [37] of 9.72 µM, a TGI [38] of 23.5 µM and a TGI [39] of 35.8 µM. For the same compound, the TGI [40] was 42.9 µM, the TGI [41] was 26.7 µM and the TGI [42] was 39.8 µM. It also gave a TGI [43] of 25.5 µM, a TGI [44] of 28.5 µM and a TGI [45] of 40.7 µM. It also gave a TGI [46] of 30.7 µM, a TGI [47] of 28.6 µM and a TGI [48] of 65.4 µM. It also gave a TGI [49] greater than 100 µM, a TGI [50] of 32.4 µM and a TGI [51] of 59.3 µM. It also gave a TGI [52] of 39.8 µM, a TGI [53] of 22.5 µM and a TGI [54] of 37.5 µM. The TGI [55] was 27.4 µM.

Compound Cc1sc2c(c1C)C(c1ccc(Cl)cc1)=N[C@@H](CC(=O)Nc1ccc(OCCOCCOCCOCCNc3cccc4c3C(=O)N(C3CCC(=O)NC3=O)C4=O)cc1)c1nnc(C)n1-2 (some centres not stated) has a GI50 [1] of 0.0796 µM, a TGI [1] greater than 100 µM and a GI50 [2] greater than 59.3 µM. It also gave a TGI [2] greater than 100 µM, a GI50 [3] of 0.0787 µM and a TGI [3] greater than 100 µM. It also gave a GI50 [4] of less than 0.0465 µM, a TGI [4] greater than 100 µM and a GI50 [5] of 10.6 µM. The TGI [5] was greater than 100 µM, the GI50 [6] was less than 0.0193 µM and the TGI [6] was greater than 100 µM. It also gave a GI50 [7] of 0.347 µM, a TGI [7] greater than 100 µM and a GI50 [8] of 0.254 µM. It also gave a TGI [8] greater than 100 µM, a GI50 [9] of 0.234 µM and a TGI [9] greater than 100 µM. The GI50 [10] was 0.388 µM, the TGI [10] was greater than 100 µM and the GI50 [11] was 0.551 µM. The TGI [11] was greater than 100 µM, the GI50 [12] was less than 0.02 µM and the TGI [12] was greater than 100 µM. For the same compound, the GI50 [13] was less than 0.0175 µM, the TGI [13] was greater than 100 µM and the TGI [14] was greater than 100 µM. For the same compound, the GI50 [15] was 0.189 µM, the TGI [15] was greater than 43.7 µM and the GI50 [16] was 0.753 µM. It also gave a TGI [16] greater than 100 µM, a GI50 [17] of less than 0.0279 µM and a TGI [17] greater than 82.4 µM. The GI50 [18] was less than 0.0178 µM, the TGI [18] was greater than 100 µM and the GI50 [19] was 0.409 µM. The TGI [19] was greater than 100 µM, the TGI [20] was greater than 100 µM and the GI50 [21] was greater than 100 µM. For the same compound, the TGI [21] was greater than 100 µM, the GI50 [22] was less than 0.0166 µM and the TGI [22] was greater than 100 µM. The GI50 [23] was 0.803 µM, the TGI [23] was 48.5 µM and the TGI [24] was greater than 100 µM. The GI50 [25] was 0.476 µM, the TGI [25] was greater than 100 µM and the GI50 [26] was less than 0.0228 µM. It also gave a TGI [26] greater than 100 µM, a GI50 [28] of less than 0.0222 µM and a TGI [28] greater than 100 µM. It also gave a GI50 [29] of 3.75 µM, a TGI [29] greater than 100 µM and a GI50 [30] of 0.314 µM. For the same compound, the TGI [30] was greater than 100 µM, the GI50 [31] was less than 0.0174 µM and the TGI [31] was greater than 100 µM. It also gave a GI50 [32] of 0.518 µM, a TGI [32] greater than 100 µM and a GI50 [33] of 16.8 µM. For the same compound, the TGI [33] was greater than 100 µM, the GI50 [56] was less than 0.0219 µM and the TGI [56] was greater than 100 µM. For the same compound, the GI50 [34] was less than 0.0125 µM, the TGI [34] was greater than 51.8 µM and the GI50 [35] was less than 0.0175 µM. For the same compound, the TGI [35] was greater than 83.8 µM, the GI50 [36] was 0.338 µM and the TGI [36] was greater than 100 µM. For the same compound, the GI50 [37] was less than 0.01 µM, the GI50 [38] was 0.013 µM and the TGI [38] was 0.0962 µM. It also gave a GI50 [39] of less than 0.01 µM, a TGI [39] greater than 100 µM and a TGI [40] greater than 100 µM. The GI50 [41] was 0.28 µM, the TGI [41] was greater than 100 µM and the GI50 [57] was 0.293 µM. For the same compound, the TGI [57] was greater than 100 µM, the GI50 [42] was less than 0.0301 µM and the TGI [42] was greater than 100 µM. It also gave a GI50 [43] of 0.195 µM, a TGI [43] of 27.5 µM and a GI50 [44] of 0.242 µM. The TGI [44] was greater than 100 µM, the GI50 [46] was 0.234 µM and the TGI [46] was 19.1 µM. For the same compound, the GI50 [47] was less than 0.0462 µM, the TGI [47] was greater than 100 µM and the GI50 [49] was greater than 52.8 µM. For the same compound, the TGI [49] was greater than 100 µM, the GI50 [50] was less than 0.0453 µM and the TGI [50] was greater than 100 µM. The TGI [51] was greater than 100 µM, the GI50 [52] was 2.13 µM and the TGI [52] was greater than 100 µM. For the same compound, the GI50 [54] was 0.394 µM, the TGI [54] was greater than 100 µM and the GI50 [58] was 0.306 µM. The TGI [58] was greater than 31.6 µM, the GI50 [55] was less than 0.0212 µM and the TGI [55] was greater than 100 µM.
